From US20210177722A1, “Phytic Acid Ester Derivative” (NATIONAL UNIVERSITY CORPORATION KUMAMOTO UNIVERSITY, priority 2018, published 2021)

Assays:
PARP-1 = assay: Western blotting (1), anti-PARP-1 antibody, Jurkat cell; assay type: cell-based, human; settings: 10 μM
Protocol: In this example, the action mechanism for killing cells by Pro-IP6 was studied by Wester blotting using a Jurkat cell and various antibodies. Jurkat cells (1×10^5 cells/well, culture fluid: 500 μL) were seeded in a 24-well plate to be cultured overnight. Thereafter, DMSO (1%, Fujifilm Wako Pure Chemical Corporation), an aqueous solution (1%) of IP6 (final concentration: 10 μM, Sigma Aldrich), or a DMSO solution (1%) of Pro-IP6 (final concentration: 1 μM or 10 μM) was added thereto, followed by culturing for 8 hours or 24 hours. A supernatant was removed, the resultant was washed with 1× PBS (−) once, Laemmli sample buffer was added thereto, and the resultant was boiled at 100° C. for 1 hour to dissolve the cells. […] Detection was performed using ImmunoStar LD (Fujifilm Wako Pure Chemical Corporation).

[1] = test system: Jurkat cell (human T-lymphocyte cell); assay: MTT assay, Jurkat cell; assay type: cell-based
Protocol: In this example, the cytotoxic effect of Pro-IP6 on four types of blood cancer cell lines and a cell derived from a healthy person was examined by MTT assay. […] It is possible to check viability of cultured cells by MTT assay. Cancer cell lines (1.74×10^4 cells/well, culture fluid: 200 μL) • MT-2 cell (HTLV transformed human T cell leukemia cell) • […] cell (human T-lymphoblastoid cell) • Jurkat cell (human T-lymphocyte cell) • K562 cell (chronic myelogenous leukemia cell) Each of the above-described types of cells was seeded in a 96-well plate, and was cultured for 8 hours for each of the various cancer cell lines and for 16 hours for PMBC. Thereafter, DMSO (1%, Fujifilm Wako Pure Chemical Corporation), an aqueous solution (1%) of IP6 (final concentration: 1 μM or 10 μM, Sigma Aldrich), or a DMSO solution (1%) of Pro-IP6 (final concentration: 1 μM or 10 μM) was added thereto, followed by culturing for 8 hours or 24 hours. An MTT reagent (Dojindo Laboratories, 1.1 mg/mL) was added in an amount of 50 μL per well, and the resultant was cultured for another 4 hours. The thus precipitated crystal was collected, a supernatant was removed, and 100 μL of DMSO was added thereto to completely dissolve. The resultant solution was measured for an absorbance (550 nm).

AMPK = assay: Western blotting (2), anti-pAMPK antibody, Jurkat cell; assay type: cell-based, human; settings: 1 μM or 10 μM, 8 hours or 24 hours
Protocol: In this example, in the same manner as in Example 4, the action mechanism for killing cells by Pro-IP6 was checked by Wester blotting using a Jurkat cell and various antibodies. Jurkat cells (1×10^5 cells/well, culture fluid: 500 μL) were seeded in a 24-well plate to be cultured overnight. Thereafter, DMSO (1%, Fujifilm Wako Pure Chemical Corporation), an aqueous solution (1%) of IP6 (final concentration 10 μM, Sigma Aldrich), or a DMSO solution (1%) of Pro-IP6 (final concentration: 1 μM or 10 μM) was added thereto, followed by culturing for 8 hours or 24 hours. A supernatant was removed, the resultant was washed with 1× PBS (−) once, Laemmli sample buffer was added thereto, and the resultant was boiled at 100° C. for […] to dissolve the cells. The resultant was subjected to electrophoresis and then transferred onto a membrane (Millipore). […] Detection was performed using ImmunoStar LD (Fujfilm Wako Pure Chemical Corporation).

[2] = test system: S1T cell (ATL cell line) tumor; assay: Effect on HTLV-1 infected cell-transplanted mouse (ATL model); assay type: in vivo; settings: day 28 after transplantation, 20 mg/kg per day intraperitoneally for 28 days, NSG mice with S1T cells
Source text: In this example, the in vivo effect of Pro-IP6 on an HTLV-1 infected cell-transplanted mouse was checked. HTLV-1 (human T cell leukemia virus 1) mainly infects CD4-positive T lymphocyte, and when the infected cell cancerates, refractory malignant tumor, adult T-cell leukemia (ATL) is caused. In this example, S1T cell, that is, one of ATL cell lines, was used.
5-Week-old female NSG mice (NOD. Cg-Prkdc scid I12rg tm1Wjl/SzJ, Charles River Laboratories Japan, Inc.) were used. Five mice each in each of two cages, namely, ten mice in total, were raised with sterilized bedding (Pepar Clean: Japan SLC, Inc.) placed in a sterilized cage (Clea Japan, Inc.). […]
The control group was dosed with DMSO, and the IP6 administration group and the pro-IP6 administration group were intraperitoneally dosed respectively with IP6 in an amount of 7.1 mg/kg and pro-IP6 in an amount of 20 mg/kg. The mice were dosed continuously for 28 days after the day of the cell transplantation, and the weight and the tumor volume of each mouse were measured every day. The tumor volume was defined as (shorter diameter in mm)^2×(longer diameter in mm)×0.5, and the shorter diameter and the longer diameter were measured with a caliper. […] Subsequently, the tumor was totally removed, and the tumor volume and the tumor weight of each tumor were measured.

In the case of `CCCC(=O)OCOP(=O)(OCOC(=O)CCC)O[C@H]1[C@H](OP(=O)(OCOC(=O)CCC)OCOC(=O)CCC)[C@@H](OP(=O)(OCOC(=O)CCC)OCOC(=O)CCC)[C@H](OP(=O)(OCOC(=O)CCC)OCOC(=O)CCC)[C@@H](OP(=O)(OCOC(=O)CCC)OCOC(=O)CCC)[C@H]1OP(=O)(OCOC(=O)CCC)OCOC(=O)CCC` [Pro-IP6, myo-inositol hexaphosphate dodecakis(butyryloxymethyl) ester], the “cleavage of PARP-1 (induction of apoptosis)” value (PARP-1) is reported as “cleavage of PARP-1 and Caspase-3 was observed”, the “cytotoxic effect at 10 μM” value [1] is reported as “most of the cells were killed” and the “lowering of relative cell viability” value ([1]; Jurkat cell, 1 μM or 10 μM, 8 hours or 24 hours) is reported as at least 25%. For the same molecule, the “activation of AMPK (pAMPK)” value (AMPK) was “activates AMPK” and the “tumor volume smaller as compared with that of the control group” value [2] was “about 25%”.
